Here are results for three compounds from patent US7692011B2, “8-hydroxy and 8-mercapto quinazolinones” (Prana Biotechnology Limited, priority 2002, dated 2010).

Usually IC50 stands for the concentration that gives 50% inhibition. Broadly, the solubility is how much of the substance goes into solution per volume.

For one data set, the target named is T1, Aβ 1-42 (Homo sapiens, UniProt P05067).
T1 construct: The reaction solutions contained Aβ 1-42
Kind of data set: Assay 1 Fluorometric H2O2 assay: inhibition of hydrogen peroxide generation by Aβ in the presence of copper. The data set is classed as biochemical. As to conditions: Aβ 1-42 with Cu-Gly, DCF fluorescence. As for the experimental part: Assay 1. Fluorometric H2O2 Assay
A fluorometric assay was used to test the ability of a test compound to inhibit hydrogen peroxide generation by Aβ in the presence of copper based on dichlorofluoroscein diacetate (DCF; Molecular Probes, Eugene Oreg.). The DCF solution (5 mM) in 100% dimethyl sulphoxide (previously purged with argon for 1 hr at 20° C.) was deacetylated in the presence of 0.025M NaOH for 30 min and neutralised at pH 7.4 to a final concentration of 1 mM. Horseradish peroxidase ([…]) stock solution was prepared to 1 μM at pH 7.4. The reactions were carried out in PBS, pH 7.4 in a 96 well plate (total volume=250 μl/well). The reaction solutions contained Aβ 1-42 at concentrations in the range of 50 nM to 1 μM, copper-glycine chelate (Cu-Gly), was prepared by adding CuCl2 to glycine in the ratio of 1:6 and added to the Aβ in the proportion 2Cu-Gly: 1Aβ), reducing agents including dopamine (5 μM) or ascorbic acid, deacetylated DCF 100 μM, and HRP, 0.1 μM. 1-10 μM EDTA or another chelator may also be present as a control for free copper, but was not required for the assay to function. The reaction mixture was incubated at 37 C for 60 min. Catalase (4000 units/ml) and H2O2 (1-2.5 μM) standards in PBS pH 7.4 may be included as positive controls. Fluorescence was recorded using a plate reader with excitation and emission filters at […] respectively. H2O2 concentration may be established by comparing fluorescence with the H2O2 standards. Inhibition of Aβ H2O2 production was assayed by including a given concentration of test compound(s) in the test wells.

Data set [1] has as its system Neuronal cortical cells treated with Aβ1-42. The data set is described as follows: Assay 3(c) Aβ neurotoxicity and Aβ neuroprotection (MTS). The data set is classed as cell-based, mouse. As to conditions: 20 uM Aβ1-42, 4 days. The protocol:
Primary Cortical Neuronal Cultures
Cortical cultures were prepared as previously described (White et al., 1998). Embryonic day 14 BL6Jx129sv mouse cortices were removed, dissected free of meninges and dissociated in 0.025% (wt/vol) trypsin. Dissociated cells were plated in 48 well culture plates at a density of 2×10^6 cells/mL in MEM with 25% (vol/vol) FCS and 5% (vol/vol) HS and incubated at 37° C., 2 hrs. Media was then replaced with Neurobasal media (Invitrogen Life Technologies) and B27 supplements (Invitrogen Life Technologies). Cultures were maintained at 37° C. in 5% CO2. Prior to experimentation, the culture medium was replaced with Neurobasal media and B27 minus antioxidants (Invitrogen Life Technologies).
(c) Assay for Aβ Neurotoxicity and Aβ Neuroprotection
Neuronal cortical cells were cultured for five days as per Assay 2. On day six the neurobasal (NB) media (Invitrogen Life Technologies) and B27 supplement (Invitrogen Life Technologies) were replaced with NB media and B27 supplement (no antioxidants). On day six, test compounds were individually added to the neuronal cell cultures:
The test compounds were dissolved in 100% DMSO to a concentration of 2.5 mM (10 mM if excess compound was weighed out per vial—then diluted to 2.5 mM). 2.5 mM stock solution was serially diluted 1 in 10 to give working solutions of 250 uM, 25 uM, 2.5 uM.
Aβ was initially dissolved in 20 mM NaOH to a concentration of 1 mM and sonicated for 5 minutes. The peptide was then diluted in H2O and 10×PBS to a final concentration of 200 uM Aβ in 1×PBS. The peptide was again sonicated for 5 minutes and then spun at 14000 rpm for 5 min and transferred to a fresh tube.
The test compounds were dissolved in 100% DMSO to a concentration of 2.5 mM (10 mM if excess compound was weighed out per vial—then diluted to 2.5 mM). 2.5 mM stock solution was serially diluted 1 in 10 [in NB media and B27 (no antioxidants)] to give working solutions of 250 uM, 25 uM, 2.5 uM. Test compounds were not added directly to cells, instead they were added to a 48 well ‘Drug Plate’ as comprised below:
Preparation of “Drug Plate”:
• Well 1: 515 ul NB+B27(no antioxidant)*+24 ul 25 uM test compound+60 ul Aβ diluent** • Well 2: 515 ul NB+B27(no antioxidant)+24 ul 250 uM test compound+60 ul Aβ diluent • Well 3: 515 ul NB+B27(no antioxidant)+24 ul test compound diluent***+60 ul Aβ1-42 • Well 4: 515 ul NB+B27(no antioxidant)+24 ul 2.5 uM test compound+60 ul Aβ1-42 • Well 5: 515 ul NB+B27(no antioxidant)+24 ul 25 uM test compound+60 ul Aβ1-42 • Well 6: 515 ul NB+B27(no antioxidant)+24 ul 250 uM test compound+60 ul […] • Well 7: 515 ul NB+B27(no antioxidant)+24 ul test compound diluent+60 ul Aβ1-42 diluent • Well 8: 600 ul NB+B27(no antioxidant) • N.B. 60 ul Aβ1-42 equals 20 ul Aβ1-42 per well equals 20 uM Aβ1-42
The Drug Plate was incubated at 37° C. for 15 mins. 200 ul of each well was added in triplicate to the corresponding cell plate. The cell plate was incubated at 37 C, for 4 days. • * NB media+B27 (no antioxidants), • ** Aβ diluent 2 mM NaOH, 1×PBS • *** PBT diluent 10% DMSO in NB+B27(no antioxidant) Completion of the Assay:
On the 4th day after treating the cells the assay is completed by adding MTS to the cells.

Data set [2] can be described thus: Assay 12 Turbidimetric solubility measurements. The data set is classed as physicochemical. As to conditions: kinetic from dmso stock, nephelometry. The protocol:
Turbidimetric Solubility Measurements
The solubility estimate was measured at both pH 2.0 and pH 6.5. This is within the pH range that can be anticipated along the proximal gastrointestinal tract in humans.
The compounds were dissolved in DMSO to appropriate concentrations and then spiked into either 0.01M HCl (approx. pH=2.0) or pH 6.5 isotonic phosphate buffer, the final DMSO concentration being 1%. Samples were then analysed via Nephelometry to determine a solubility range. [as per D. Bevan and R. S. Lloyd, Anal. Chem. 2000, 72, 1781-1787].

[3] abbreviates: aqueous buffer, pH 6.5 isotonic phosphate buffer, 1% DMSO, read-out: Assay 12 Solubility at pH 6.5.
Setting [4] is: simulated gastric fluid, 0.01 M HCl, pH 2.0, 1% DMSO, read-out: Assay 12 Solubility in 0.01 M HCl, pH 2.0.

Molecules are shown by their SMILES. ≈ marks a conversion by molar mass, not a printed value. Read-outs that look alike come from different tables or passages of the source.

T1 sequence (P05067 672-713 limits assumed): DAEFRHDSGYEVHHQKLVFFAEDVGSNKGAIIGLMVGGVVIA

Regarding `O=c1c(-c2ccc(Cl)cc2)cnc2c(O)c(I)ccn12` [PBT-1063, 3-(4-Chlorophenyl)-9-hydroxy-8-iodopyrido[1,2-a]pyrimidin-4-one], the 50% inhibitory concentration (IC50) on Aβ 1-42 came out at 620 nM. In addition, the “Assay 3(c) Neuroprotection (% inhibition of Abeta toxicity)” value in data set [1] amounted to 3%. The solubility in data set [2] (setting [3]) was below 5 µg/mL; in data set [2] (setting [4]) it was below 10 µg/mL.
Consider `O=c1c2c(Cl)cc(Cl)c(O)c2ncn1C1CC1` [PBT-1061, 5,7-Dichloro-3-cyclopropyl-8-hydroxy-3H-quinazolin-4-one], for which, at Aβ 1-42, the IC50 is 450 nM. In addition, the “Assay 3(c) Neuroprotection (% inhibition of Abeta toxicity)” value in data set [1] turned out to be 16%. In addition, the solubility in data set [2] (setting [3]) was 12.5 to 25 µg/mL (≈ 46.1 to 92.2 µM); in data set [2] (setting [4]) it was 3.1 to 6.2 µg/mL (≈ 11.4 to 22.9 µM).
For `Oc1c(N2CCOCC2)ncc2cccnc12` [PBT-1053, 7-Morpholin-4-yl-[1,6]naphthyridin-8-ol] the same measures were 630 nM, 11%, above 200 µg/mL and 50 to 100 µg/mL (≈ 216 to 432 µM).
